Assay results as given in patent US20070088050A1, “Crystals of laquinimod sodium, and process for the manufacture thereof” (priority 2005, published 2007).

How the values were obtained:
[1] = Particle size distribution by Malvern laser diffraction (Mastersizer S); type: physicochemical; conditions: for Particle size distribution by Malvern, d(0.1): size below which 10% by volume of the population is found; for Particle size distribution by Malvern, d(0.5): size below which 50% by volume of the population is found; for Particle size distribution by Malvern, d(0.9): size below which 90% by volume of the population is found
Procedure: The particle size distributions were measured by Malvern Laser Diffraction, using the Mastersizer S model. Laser diffraction relies on the fact that diffraction angle of light is inversely proportional to particle size. Properties of particles are measured and interpreted as measurements of a sphere (a sphere being the only shape that can be described by one unique number). In addition, laser diffraction calculates a particle size distribution based around volume terms, thus eliminating particle count from the determination of particle size. The Mastersizer S model measures particles using a single technique and a single range setting.
D(0.1) is the particle size, in microns, below which 10% by volume distribution of the population is found. D(0.5) is the particle size, in microns, below which 50% by volume distribution of the population is found. D(0.9) is the particle size, in microns, below which 90% by volume distribution of the population is found.

[2] = Determination of powder density (bulk density, tapped density); type: physicochemical; conditions: for Powder density, TD (tapped density): 1250 taps; for Powder density, BD (bulk density): loose, uncompacted powder
Procedure: As used herein, “bulk density” or “BD” refers to a density measurement of a loose, uncompacted substance, wherein the volume of the substance includes the air trapped between particles.
As used herein, “tapped density” or “TD” refers to a density measurement of a substance that has been tapped or vibrated, thus minimizing the volume of the substance by eliminating or minimizing the air trapped between particles.
Determination of Powder Density
• 1. Mix powder; • 2. Tare a 50 ml empty cylinder on a 0.01 g sensitivity balance; • 3. Transfer the powder, without compacting, to the cylinder being held at approximately a 45 degree angle to achieve an untapped apparent volume of 40 to 50 ml. • 4. Bring the cylinder containing the sample to a vertical position by a sharp move in order to level the volume for reading. • 5. Read the apparent volume (Va) to the nearest graduated unit; • 6. Weigh the cylinder with sample (the balance gives sample weight M); • 7. Calculate bulk density in g/ml according to the following equation: BD=M/Va; • 8. Perform steps 1-7 again and report the average data of duplicates. Tapped Density • 1. Put the same cylinder used to calculate Bulk Density in a Quantachrome Dual Autotap instrument; • 2. Perform 1250 taps; • 3. Read the tapped volume (Vf) to the nearest graduated unit; • 4. Calculate the tapped density in g/ml according to the following equation: TD=M/Vf; • 5. Perform steps 1-4 again and report the average data of duplicates. Determination of Particle Size

[3] = Solubility of laquinimod sodium in anti-solvents at room temperature (USP XXV terms); type: physicochemical; conditions: room temperature (20-25° C.)
Excerpt: The solubility terms are defined below, in accordance with the United States Pharmacopoeia XXV. [table]

[4] = system: acute experimental autoimmune encephalomyelitis (aEAE) model; conditions: U.S. Pat. No. 6,077,851; cited from earlier work
[5] = Insoluble matter test: sample mixed in deionized water at ambient temperature; type: physicochemical; conditions: 55 mg sample in 0.5 mL deionized water
Procedure: (§1) The subject invention also provides a process for making a pharmaceutical composition comprising laquinimod sodium comprising: • a) obtaining a batch of laquinimod sodium; • b) determining whether insoluble matter is present in the batch of step a) by mixing a sample from the batch in deionized water at room temperature at a ratio of at least 110 mg of sample to 1.0 ml of water, and inspecting the resulting mixture for the presence of insoluble matter; and • c) mixing the batch of step a) with at least one pharmaceutically acceptable carrier if in step b) insoluble matter is determined to be present below a predetermined amount.
as §1, with “A” for “The subject invention also provides a”, “amount. […]” for “amount.”

[6] = listed as Laguinimod Sodium according to Example 1 (batch B)

SMILES | Particle size distribution by Malvern, d(0.1) [1] [micron] | Particle size distribution by Malvern, d(0.5) [1] [micron] | Particle size distribution by Malvern, d(0.9) [1] [micron] | Powder density, TD (tapped density) [2] [g/ml] | Powder density, BD (bulk density) [2] [g/ml] | further results
CCN(C(=O)c1c([O-])c2c(Cl)cccc2n(C)c1=O)c1ccccc1.[Na+] [Laquinimod Sodium prepared according to Example 1 (batch C)] | 1.3 | 5.9 | 19.4 | 0.362 | 0.158 | –
CCN(C(=O)c1c([O-])c2c(Cl)cccc2n(C)c1=O)c1ccccc1.[Na+] [Re-acrystallized product] | 13.3 | 51.1 | 105.1 | 0.758 | 0.498 | –
CCN(C(=O)c1c([O-])c2c(Cl)cccc2n(C)c1=O)c1ccccc1.[Na+] [Laquinimod Sodium prepared according to Example 1 (batch B)] | 2.1 | 10.8 | 35.3 | 0.452 | 0.189 | Particle size distribution by Malvern, d(0.1) [1, 6]: 2.1 micron; Particle size distribution by Malvern, d(0.5) [1, 6]: 10.8 micron; Particle size distribution by Malvern, d(0.9) [1, 6]: 35.3 micron
CCN(C(=O)c1c([O-])c2c(Cl)cccc2n(C)c1=O)c1ccccc1.[Na+] [Recrystallized product (Example 14)] | 3.5 | 15.7 | 43.2 | 0.429 | 0.224 | –
CCN(C(=O)c1c([O-])c2c(Cl)cccc2n(C)c1=O)c1ccccc1.[Na+] [Laquinimod Sodium prepared according to Example 1 (batch A)] | 1.5 | 7.1 | 23.2 | 0.347 | 0.166 | –
CCN(C(=O)c1c(O)c2c(Cl)cccc2n(C)c1=O)c1ccccc1 [laquinimod sodium] | – | – | – | – | – | Solubility in acetone ([3]; acetone): practically insoluble; Solubility in ethanol ([3]; ethanol): slightly soluble; Solubility in isopropanol ([3]; isopropanol): very slightly soluble
CCN(C(=O)c1c([O-])c2c(Cl)cccc2n(C)c1=O)c1ccccc1.[Na+] [Recrystallized product (Example 16)] | 15.7 | 65.5 | 156.4 | – | – | –
CCN(C(=O)c1c([O-])c2c(Cl)cccc2n(C)c1=O)c1ccccc1.[Na+] [Recrystallized product (Example 15)] | 6.1 | 21.2 | 51.8 | – | – | –
CCN(C(=O)c1c(O)c2c(Cl)cccc2n(C)c1=O)c1ccccc1 [Laquinimod, N-ethyl-N-phenyl-1,2,-dihydro-4-hydroxy-5-chloro-1-methyl-2-oxoquinoline-3-carboxamide] | – | – | – | – | – | Efficacy in the aEAE model [4]: effective
CCN(C(=O)c1c([O-])c2c(Cl)cccc2n(C)c1=O)c1ccccc1.[Na+] | – | – | – | – | – | Dissolution in deionized water [5]: did not completely dissolve
